The term inhibition denotes the drop in the measured response relative to a control, in per cent.

The record followed here is article PMC6010071, “Blocking oestradiol synthesis pathways with potent and selective coumarin derivatives” (Journal of Enzyme Inhibition and Medicinal Chemistry, 2018).

The first data set concerns the target T1, recombinant human HSD2 (Homo sapiens, UniProt P37059).
T1 construct: made in house; host or cells: Sf9 insect cells
T1 sequence (P37059 1-387): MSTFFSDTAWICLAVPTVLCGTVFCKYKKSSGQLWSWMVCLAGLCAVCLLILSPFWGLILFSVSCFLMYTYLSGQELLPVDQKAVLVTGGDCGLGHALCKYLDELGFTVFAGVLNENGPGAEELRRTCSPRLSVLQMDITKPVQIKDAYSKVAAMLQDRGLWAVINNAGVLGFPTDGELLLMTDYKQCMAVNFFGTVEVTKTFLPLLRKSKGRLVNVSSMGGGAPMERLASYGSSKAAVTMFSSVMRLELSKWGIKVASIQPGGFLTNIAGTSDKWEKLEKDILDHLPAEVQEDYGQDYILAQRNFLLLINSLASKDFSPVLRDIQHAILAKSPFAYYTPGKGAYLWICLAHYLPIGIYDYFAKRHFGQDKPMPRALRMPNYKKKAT
Nature of the data set: HSD2 inhibition, HPLC assay of [3H]-E2 to [3H]-E1 conversion. In kind it is biochemical. To be noted: read-out: HSD2 inhibition at 1 µM. The procedure: The inhibition was determined by HPLC using recombinant human HSD1 and HSD2 proteins as described in a prior study. In short, recombinant human HSD1 and HSD2 were produced in Sf9-insect cells. […]. After incubation, the reaction was stopped by addition of […] 10% trichloroacetic acid per sample. After incubation the substrate and the product of enzymatic conversion [3H]-E1 and [3H]-E2 were separated and quantified by HPLC (Alliance 2790, Waters, Milford, MA) connected to an online counter (Packard Flow Scintillation Analyser; Perkin Elmer Inc., Waltham, […]). The ratio of [3H]-E1 converted to [3H]-E2 or vice versa determines the conversion percentage of the samples. Inhibition was measured in three concentrations (100 nM, 1, and 5 µM) in order to follow the progression of inhibition efficiencies. Inhibition efficiencies of the tested inhibitors were calculated by comparing the conversion percentages of the samples including inhibitors with those of conversion controls (without inhibitors).
Take `O=c1oc2ccc(Cl)cc2cc1-c1cccc(O)c1` [Compound 4, 6-chloro-3–(3-hydroxyphenyl)-2H-chromen-2-one]: the inhibition at 1 µM was 16%.
On the same count and under the same terms, the result for `O=c1oc2ccccc2cc1-c1cccc(O)c1` [Compound 3, 3–(3-hydroxyphenyl)-2H-chromen-2-one] reads 42%; that for `COc1ccc(-c2cc3cccc(O)c3oc2=O)cc1` [Compound 1, 8-hydroxy-3–(4-methoxyphenyl)-2H-chromen-2-one], 27%; that for `COc1ccc2cc(-c3ccc(O)c(F)c3)c(=O)oc2c1` [Compound 6, 3–(3-fluoro-4-hydroxyphenyl)-7-methoxy-2H-chromen-2-one], 31%.
As to `O=c1oc2ccc(O)cc2cc1-c1ccc(O)cc1` [Compound 2, 6-hydroxy-3–(4-hydroxyphenyl)-2H-chromen-2-one], the inhibition at 1 µM was found to be 7%.
Still for that read-out and setting: the result for `COc1ccc2oc(=O)c(-c3ccc(O)c(F)c3)cc2c1` [Compound 7, 3–(3-fluoro-4-hydroxyphenyl)-6-methoxy-2H-chromen-2-one] reads 13%.

The target of the next data set is T2, heterologously expressed human CYP1A2 enzyme (Homo sapiens, UniProt P05177).
T2 construct: purchased Corning Inc., Corning, NY
T2 sequence (P05177 1-516): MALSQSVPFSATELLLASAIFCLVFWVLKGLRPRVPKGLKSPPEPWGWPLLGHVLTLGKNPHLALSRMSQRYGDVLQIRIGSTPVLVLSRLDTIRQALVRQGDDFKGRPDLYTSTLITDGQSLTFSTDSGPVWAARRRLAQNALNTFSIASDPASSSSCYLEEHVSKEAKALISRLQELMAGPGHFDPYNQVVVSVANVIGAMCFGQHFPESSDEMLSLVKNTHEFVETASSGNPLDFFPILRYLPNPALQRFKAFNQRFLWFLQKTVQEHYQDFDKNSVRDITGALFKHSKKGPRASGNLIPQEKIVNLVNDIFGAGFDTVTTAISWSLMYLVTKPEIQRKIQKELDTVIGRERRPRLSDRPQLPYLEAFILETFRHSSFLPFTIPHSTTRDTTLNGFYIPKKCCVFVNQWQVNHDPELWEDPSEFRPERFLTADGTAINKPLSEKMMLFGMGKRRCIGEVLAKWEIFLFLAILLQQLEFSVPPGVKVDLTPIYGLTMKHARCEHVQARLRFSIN
Briefly: CYP1A2 inhibition. In kind it is biochemical.
Details: not given
As to the method:
Inhibition of CYP1A2 activity was determined using commercial heterologously expressed human CYP1A2 enzyme (Corning Inc., Corning, NY) essentially as described previously.
Consider `COc1ccc2cc(-c3ccc(O)c(F)c3)c(=O)oc2c1` [Compound 6, 3–(3-fluoro-4-hydroxyphenyl)-7-methoxy-2H-chromen-2-one], for which the “CYP1A2 inhibition ∼ pIC50” value worked out at 4.52.
For `COc1ccc2oc(=O)c(-c3ccc(O)c(F)c3)cc2c1` [Compound 7, 3–(3-fluoro-4-hydroxyphenyl)-6-methoxy-2H-chromen-2-one], the “CYP1A2 inhibition ∼ pIC50” value is on record as 5.82.

Staying with this data set, now noted: read-out: CYP1A2 inhibition ∼ pIC50 (converted).
With `O=c1oc2ccc(Cl)cc2cc1-c1cccc(O)c1` [Compound 4, 6-chloro-3–(3-hydroxyphenyl)-2H-chromen-2-one], the IC50 was 0.129 µM.
For `O=c1oc2ccccc2cc1-c1cccc(O)c1` [Compound 3, 3–(3-hydroxyphenyl)-2H-chromen-2-one], the IC50 is 7.08 µM.
With `COc1ccc(-c2cc3cccc(O)c3oc2=O)cc1` [Compound 1, 8-hydroxy-3–(4-methoxyphenyl)-2H-chromen-2-one], the IC50 is 85.1 µM.
On the same count and under the same terms, the result for `O=c1oc2ccc(O)cc2cc1-c1ccc(O)cc1` [Compound 2, 6-hydroxy-3–(4-hydroxyphenyl)-2H-chromen-2-one] reads 33.1 µM.

The target of the next data set is T3, MAO-B (Homo sapiens, UniProt P27338).
T3 construct: purchased Sigma-Aldrich (St. Louis, MO)
T3 sequence (P27338 1-520): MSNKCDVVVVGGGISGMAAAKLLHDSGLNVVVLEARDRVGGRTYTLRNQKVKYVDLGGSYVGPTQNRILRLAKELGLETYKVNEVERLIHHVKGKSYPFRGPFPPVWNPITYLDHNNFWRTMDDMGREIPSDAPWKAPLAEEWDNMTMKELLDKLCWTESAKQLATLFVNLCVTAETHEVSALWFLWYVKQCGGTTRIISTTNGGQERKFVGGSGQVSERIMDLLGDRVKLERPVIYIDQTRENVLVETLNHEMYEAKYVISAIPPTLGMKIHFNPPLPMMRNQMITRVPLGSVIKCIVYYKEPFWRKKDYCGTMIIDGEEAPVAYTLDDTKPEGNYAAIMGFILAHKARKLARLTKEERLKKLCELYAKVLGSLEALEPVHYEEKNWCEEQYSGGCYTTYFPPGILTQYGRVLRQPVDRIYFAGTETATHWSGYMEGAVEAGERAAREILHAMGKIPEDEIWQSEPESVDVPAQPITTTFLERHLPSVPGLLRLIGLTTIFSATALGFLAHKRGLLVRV
Briefly: MAO-B inhibition, continuous spectrophotometric assay. The data set is classed as biochemical. The conditions noted are these: 10 µM; single point, read at 2 h; read-out: MAO-B inhibition at 10 µM. As to the method:
(§1) The protocol of continuous spectrophotometric assay by Holt et al. was first used to determine the activity of the proteins. […] The protein was first incubated for 30 min at 37 °C in the chromogenic solution and then the substrate tyramine was introduced at 0.5 mM final plate concentration completing the assay volume. […] The assay should produce absorbance change of ∼0.35[23]. […] These protein concentrations were selected to be used to analyse the molecules 1–9. The analysis conditions followed the above-described assay protocol[23] and the activity of tested molecules was measured at 100 µM for MAO-A and at 10 µM for MAO-B. The analysis was performed as single point measurements and the signal was read by the same instrument at the expected assay maximum indicated by the activity measurements, at 30 min for MAO-A and at 2 h for MAO-B, respectively. […] The observed activity was calculated as inhibition percentage (Table 1).
As to `O=c1oc2ccc(Cl)cc2cc1-c1cccc(O)c1` [Compound 4, 6-chloro-3–(3-hydroxyphenyl)-2H-chromen-2-one], the inhibition at 10 µM amounted to 64%.
The same measure, in the same setting: then `O=c1oc2ccccc2cc1-c1cccc(O)c1` [Compound 3, 3–(3-hydroxyphenyl)-2H-chromen-2-one], with 50%.
Still for that read-out and setting: the result for `COc1ccc(-c2cc3cccc(O)c3oc2=O)cc1` [Compound 1, 8-hydroxy-3–(4-methoxyphenyl)-2H-chromen-2-one] reads 48%.

The data set is the same for the next values; noted with them: read-out: MAO-B inhibition at 10 µM, 10 µM; single point, read at 2 h.
As to `O=c1oc2ccc(O)cc2cc1-c1ccc(O)cc1` [Compound 2, 6-hydroxy-3–(4-hydroxyphenyl)-2H-chromen-2-one], the inhibition at 10 µM worked out at 16%.

In the next data set the target is T4, MAO-A (Homo sapiens, UniProt P21397).
T4 construct: purchased Sigma-Aldrich (St. Louis, MO)
T4 sequence (P21397 1-527): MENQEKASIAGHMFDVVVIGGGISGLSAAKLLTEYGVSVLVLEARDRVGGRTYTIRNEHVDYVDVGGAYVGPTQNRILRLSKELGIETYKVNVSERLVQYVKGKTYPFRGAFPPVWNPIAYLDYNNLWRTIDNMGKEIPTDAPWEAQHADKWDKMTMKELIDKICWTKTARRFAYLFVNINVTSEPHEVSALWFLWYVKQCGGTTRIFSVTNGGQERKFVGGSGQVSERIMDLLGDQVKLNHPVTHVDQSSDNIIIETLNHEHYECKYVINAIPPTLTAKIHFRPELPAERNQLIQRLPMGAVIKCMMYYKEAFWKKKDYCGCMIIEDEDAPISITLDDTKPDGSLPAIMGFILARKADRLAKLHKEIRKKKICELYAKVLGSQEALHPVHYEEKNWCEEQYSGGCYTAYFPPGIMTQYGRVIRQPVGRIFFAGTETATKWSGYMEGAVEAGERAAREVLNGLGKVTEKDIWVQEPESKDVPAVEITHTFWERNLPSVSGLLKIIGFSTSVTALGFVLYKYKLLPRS
Nature of the data set: MAO-A inhibition, continuous spectrophotometric assay. The data set is classed as biochemical. The conditions noted are these: 100 µM; single point, read at 30 min; read-out: MAO-A inhibition at 100 µM. The procedure:
as §1
Turning to `O=c1oc2ccccc2cc1-c1cccc(O)c1` [Compound 3, 3–(3-hydroxyphenyl)-2H-chromen-2-one], the inhibition at 100 µM turned out to be 4%.
On the same count and under the same terms, the result for `COc1ccc(-c2cc3cccc(O)c3oc2=O)cc1` [Compound 1, 8-hydroxy-3–(4-methoxyphenyl)-2H-chromen-2-one] reads 4%; that for `COc1ccc2cc(-c3ccc(O)c(F)c3)c(=O)oc2c1` [Compound 6, 3–(3-fluoro-4-hydroxyphenyl)-7-methoxy-2H-chromen-2-one], -1%; that for `COc1ccc2oc(=O)c(-c3ccc(O)c(F)c3)cc2c1` [Compound 7, 3–(3-fluoro-4-hydroxyphenyl)-6-methoxy-2H-chromen-2-one], -11%.

Staying with this data set, now noted: read-out: MAO-A inhibition at 100 µM.
As to `O=c1oc2ccc(O)cc2cc1-c1ccc(O)cc1` [Compound 2, 6-hydroxy-3–(4-hydroxyphenyl)-2H-chromen-2-one], the inhibition at 100 µM is -6%.
